The target of this series is ATP-dependent translocase ABCB1 (Homo sapiens, UniProt P08183). As to the kind of experiment: TP_TRANSPORTER: mRNA expression level of MDR1 was inversely related to the concentration/dose ratio in vivo, recipients of living-donor liver transplantation. It is filed as functional, organism-based.
Sequence of ATP-dependent translocase ABCB1 (P08183 whole entry): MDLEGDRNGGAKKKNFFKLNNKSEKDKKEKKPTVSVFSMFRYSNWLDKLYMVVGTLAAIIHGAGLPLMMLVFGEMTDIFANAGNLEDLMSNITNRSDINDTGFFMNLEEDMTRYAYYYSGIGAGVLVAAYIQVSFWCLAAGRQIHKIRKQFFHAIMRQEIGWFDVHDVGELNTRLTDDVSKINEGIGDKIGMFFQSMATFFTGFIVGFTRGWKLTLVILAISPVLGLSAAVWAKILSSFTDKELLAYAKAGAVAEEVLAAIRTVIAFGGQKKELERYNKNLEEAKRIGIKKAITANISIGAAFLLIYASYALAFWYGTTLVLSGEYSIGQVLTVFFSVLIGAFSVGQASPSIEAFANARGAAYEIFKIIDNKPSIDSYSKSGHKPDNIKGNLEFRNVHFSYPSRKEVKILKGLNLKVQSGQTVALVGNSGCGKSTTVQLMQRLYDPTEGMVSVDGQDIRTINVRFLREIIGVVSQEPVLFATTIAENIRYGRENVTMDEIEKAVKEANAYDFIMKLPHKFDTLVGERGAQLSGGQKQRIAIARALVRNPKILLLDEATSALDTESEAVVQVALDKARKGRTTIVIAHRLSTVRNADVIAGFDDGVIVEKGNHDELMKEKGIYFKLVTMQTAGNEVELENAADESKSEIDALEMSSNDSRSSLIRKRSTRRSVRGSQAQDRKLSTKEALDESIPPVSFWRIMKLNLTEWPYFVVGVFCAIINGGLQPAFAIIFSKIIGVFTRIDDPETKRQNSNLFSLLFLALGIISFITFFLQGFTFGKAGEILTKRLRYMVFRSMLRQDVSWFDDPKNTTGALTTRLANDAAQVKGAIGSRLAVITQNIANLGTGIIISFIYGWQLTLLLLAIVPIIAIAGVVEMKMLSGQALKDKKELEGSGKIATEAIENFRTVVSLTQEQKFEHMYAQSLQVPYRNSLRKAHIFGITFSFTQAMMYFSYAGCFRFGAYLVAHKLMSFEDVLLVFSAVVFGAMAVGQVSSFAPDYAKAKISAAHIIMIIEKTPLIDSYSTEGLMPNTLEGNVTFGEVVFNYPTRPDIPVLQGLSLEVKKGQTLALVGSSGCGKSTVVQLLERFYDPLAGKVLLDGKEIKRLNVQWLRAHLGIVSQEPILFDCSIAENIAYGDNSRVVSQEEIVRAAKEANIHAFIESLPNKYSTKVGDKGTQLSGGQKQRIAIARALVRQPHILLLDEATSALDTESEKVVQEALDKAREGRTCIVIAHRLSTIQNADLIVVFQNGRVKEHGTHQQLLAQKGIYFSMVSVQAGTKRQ

`C=CC[C@@H]1/C=C(\C)C[C@H](C)C[C@H](OC)[C@H]2O[C@@](O)(C(=O)C(=O)N3CCCC[C@H]3C(=O)O[C@H](/C(C)=C/[C@@H]3CC[C@@H](O)[C@H](OC)C3)[C@H](C)[C@@H](O)CC1=O)[C@H](C)C[C@@H]2OC` [TACROLIMUS ANHYDROUS]: the Activity result was “substrate [+]”.

For the origin of these results see ChEMBL document CHEMBL2074381, “Pharmacokinetic and prognostic significance of intestinal MDR1 expression in recipients of living-donor liver transplantation” (Clin Pharmacol Ther, 2001).
